From patent US5567734A, “Phenyl-substituted alkylcarboguanidides carrying perfluoroalkyl groups, a process for their preparation, their use as a medicament or a diagnostic agent, and a medicament containing them” (priority 1994, dated 1996)
Counter-ions that a name gives are not always drawn.

How the values were obtained:
[1] = biological target: T1, Na^+ /H^+ exchanger of rabbit erythrocytes (Oryctolagus cuniculus, UniProt P23791); experiment: Inhibition of the Na^+ /H^+ exchanger of rabbit erythrocytes (Na^+ influx by flame photometry); type: cell-based, rabbit (New Zealand White); conditions: pH 7.4, 37° C., hyperosmolar salt/sucrose medium, cholesterol-fed rabbits, read-out: IC 50, Na^+ /H^+ -exchanger inhibition
T1 construct: endogenous in cells; host or cells: erythrocytes in heparinised blood of cholesterol-fed New Zealand White rabbits (Ivanovas)
T1 sequence (P23791 whole entry): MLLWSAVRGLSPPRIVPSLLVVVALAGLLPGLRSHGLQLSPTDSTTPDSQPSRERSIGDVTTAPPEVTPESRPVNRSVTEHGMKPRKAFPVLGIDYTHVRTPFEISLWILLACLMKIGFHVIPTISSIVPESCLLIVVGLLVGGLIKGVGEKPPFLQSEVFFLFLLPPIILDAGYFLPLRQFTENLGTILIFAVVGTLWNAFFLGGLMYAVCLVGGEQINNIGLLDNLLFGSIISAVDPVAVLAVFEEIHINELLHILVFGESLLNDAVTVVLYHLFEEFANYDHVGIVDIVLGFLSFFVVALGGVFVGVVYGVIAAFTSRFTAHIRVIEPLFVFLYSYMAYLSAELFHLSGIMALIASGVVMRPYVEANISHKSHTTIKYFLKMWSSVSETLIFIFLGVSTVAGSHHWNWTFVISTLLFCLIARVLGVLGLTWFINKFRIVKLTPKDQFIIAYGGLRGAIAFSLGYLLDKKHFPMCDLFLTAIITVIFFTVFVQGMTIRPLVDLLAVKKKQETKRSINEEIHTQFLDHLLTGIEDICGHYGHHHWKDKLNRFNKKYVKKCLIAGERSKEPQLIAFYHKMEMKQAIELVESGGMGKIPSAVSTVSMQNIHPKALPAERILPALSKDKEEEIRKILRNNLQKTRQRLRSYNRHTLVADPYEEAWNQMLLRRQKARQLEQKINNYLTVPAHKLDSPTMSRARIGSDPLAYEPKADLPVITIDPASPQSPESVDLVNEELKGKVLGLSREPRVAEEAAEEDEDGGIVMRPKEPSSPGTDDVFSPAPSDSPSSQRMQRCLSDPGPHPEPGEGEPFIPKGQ
From the text: Inhibition of the Na^+ /H^+ exchanger of rabbit erythrocytes:
New Zealand White rabbits (Ivanovas) were given a standard diet containing 2% cholesterol for 6 weeks in order to activate Na^+ /H^+ exchange and thus render it possible to determine the Na^+ influx into the erythrocytes via Na^+ /H^+ exchange by flame photometry. The blood was removed from the aural arteries and rendered incoagulable using 25 IU/ml potassium heparin. A portion of each sample was used for determining, in duplicate, the hematocrit by centrifugation. Aliquots of in each case 100 μl were used for measuring the initial content of Na^+ in the erythrocytes.
In order to determine the amiloride-sensitive sodium influx, 100 μl of each blood sample were incubated, at pH 7.4 and 37° C., in in each case 5 ml of a hyperosmolar salt/sucrose medium (mmol/l:140 NaCl, 3 KCl, 150 sucrose, 0.1 ouabain, 20 tris(hydroxymethyl)aminomethane). After that, the erythrocytes were washed three times with ice-cold MgCl2 /ouabain solution (mmol/l: 112 MgCl2, 0.1 ouabain), and haemolyzed in 2.0 ml of distilled water. The intracellular content of sodium was determined by flame photometry.
The net influx of Na^+ was calculated from the difference between the initial sodium values and the sodium content of the erythrocytes after incubation. The amiloride-inhibitable sodium influx was given by the difference in the sodium content of the erythrocytes after incubation with and without 3×10^-4 mol/l amiloride. The same procedure was employed for the compounds according to the invention.

[2] = test system: disturbances of cardiac rhythm; conditions: literature; cited from earlier work
rat hearts = conditions: isolated rat hearts; cited from earlier work

Row | Structure (SMILES) | IC50 [1] [nM] | further results
1 | CC(Cc1cccc(C(F)(F)F)c1)C(=O)N=C(N)N (racemic) [Example 5, 2-Methyl-3-(3-trifluoromethylphenyl)propionoguanidide hydrochloride] | 50 | –
2 | N=C(N)NC(=O)c1nc(Cl)c(N)nc1N [amiloride] | – | antiarrhythmic effect [2]: only weakly expressed; side effects when treating disturbances of cardiac rhythm [2]: hypotensive and saluretic effects; suppression of artificially induced ventricular fibrillation (rat hearts): completely suppress
3 | CCN(c1nc(N)c(C(=O)NC(=N)N)nc1Cl)C(C)C [ethylisopropyl amiloride, Ethylisopropyl amiloride] | – | potency relative to amiloride, ventricular fibrillation (rat hearts): even more potent than amiloride

Second part, led by results:

Row | IC50 [1] [nM] | Structure (SMILES) | further results
4 | 500 | NC(N)=NC(=O)CCc1ccccc1C(F)(F)F [Example 2, 3-(2-Trifluoromethylphenyl)propionoguanidide] | –
5 | 700 | NC(N)=NC(=O)CCc1cccc(OC(F)(F)F)c1 [Example 3, 3-(3-Trifluoromethoxyphenyl)propionoguanidide hydrochloride] | –
6 | 600 | NC(N)=NC(=O)CCc1cccc(C(F)(F)F)c1 [Example 1, 3-(3-Trifluoromethylphenyl)propionoguanidide] | –
